The values below come from patent US6461997B1, “Triazole sulfones having herbicidal activity” (Monsanto Technology LLC, priority 1999, dated 2002).

Test [1] deals with CHEAL (common lambsquarters). As to the kind of experiment: Pre-plant incorporated (PPI) herbicidal activity, warm season. In kind it is in vivo, Chenopodium album. To be noted: for PPI activity (GR80) CHEAL: pre-plant incorporated, GR80 = lowest tested rate with 80% or greater inhibition, approx. 14 days after treating, 30/21° C.; for Percent inhibition CHEAL: PPI application. Here is the method: (§1) In another set of tests, the pre-plant incorporated (PPI) activity of compounds of this invention was evaluated on the same species as for the pre-emergence tests described above. In the PPI tests the following procedure, designed to simulate PPI application, was used.
(§2) A pre-prepared topsoil mixture (described above) was placed in a pot and compacted to a depth of 1.0 to 1.25 cm from the top of the pot. Seeds of each of several monocotyledonous and dicotyledonous annual plant species were placed on top of the soil. A sufficient quantity of soil to cover the seeds and level fill the pot was weighed into an open container. A known amount of the test compound was dissolved or suspended in an organic solvent and applied by spraying to this cover soil. The cover soil was thoroughly mixed to distribute the test compound throughout the cover soil, and was then applied as a cover layer over the seeds. Untreated soil was used as a cover layer for control pots. After treatment the plants were placed in a greenhouse where they received 0.64 cm of overhead irrigation. All subsequent watering consisted of a light overhead mist and/or subirrigation as needed for germination and growth. Tables 9 and 10 below relate to warm season plant species which were placed after pre-emergence treatment in a greenhouse with a 30/21° C. day/night temperature regime. Tables 11 and 12 below relates to cool season plant species placed after pre-emergence treatment in a greenhouse or growth chamber with an 18/13° C. day/night temperature regime. Only the compounds of Examples 1, 6, 8, 11, 13 and 15-20 were included in PPI tests.
(§3) Approximately 14 days after planting and treating, the plants were observed and herbicidal efficacy recorded as percent inhibition by comparison with untreated plants.

Test [2] relates to AGRRE (quackgrass (seedling)). The experiment in a line: Pre-plant incorporated (PPI) herbicidal activity, cool season. The format is in vivo, Elymus repens. Particulars: for PPI activity GR80, AGRRE: pre-plant incorporated, lowest tested rate with 80% or greater inhibition, about 14 days; for Percent inhibition AGRRE: weed, PPI application. Here is the method:
as §1, §2, §3

For a further test, the system named is SETVI (green foxtail). The experiment in a line: Pre-emergence herbicidal activity, cool season. In kind it is in vivo, Setaria viridis. Particulars: GR80 = lowest tested rate (300, 100, 30, 10 g/ha) with 80% or greater inhibition; approx. 14 days after treating; 18/13° C. The method, boiled down: (§4)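 Seeds sown in sterilised fertilised topsoil received surface-applied compound in 50:50 acetone/water, typically at 300, 100, 30 and 10 g/ha, then greenhouse-grown at 30/21° C (warm-season species) or 18/13° C (cool-season species). Percent inhibition versus untreated plants was scored at about 14 days, giving GR80; an asterisk marks activity short of 80% at the top rate.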

In another test the test system is AVEFA (wild oat). The experiment in a line: Pre-plant incorporated (PPI) herbicidal activity, cool season. In kind it is in vivo, Avena fatua. Particulars: for PPI activity GR80, AVEFA: pre-plant incorporated, lowest tested rate with 80% or greater inhibition, about 14 days; for Percent inhibition AVEFA: weed, PPI application. Here is the method: as §1, §2, §3
The test system of another test is ECHCG (barnyardgrass). The experiment in a line: Pre-plant incorporated (PPI) herbicidal activity, warm season. In kind it is in vivo, Echinochloa crus-galli. Particulars: for PPI activity GR80, ECHCG: pre-plant incorporated, lowest tested rate with 80% or greater inhibition, about 14 days; for Percent inhibition ECHCG: PPI application. Here is the method: as §1, §2, §3

In test [3] the test system is AMARE (redroot pigweed). Described as above. The format is in vivo, Amaranthus retroflexus. To be noted: for PPI activity (GR80) AMARE: pre-plant incorporated, GR80 = lowest tested rate with 80% or greater inhibition, approx. 14 days after treating, 30/21° C.; for Percent inhibition AMARE: PPI application. Here is the method:
as §1, §2, §3

Test [4] has as its system LAMPU (purple deadnettle). As to the kind of experiment: Pre-plant incorporated (PPI) herbicidal activity, cool season. In kind it is in vivo, Lamium purpureum. Particulars: for PPI activity GR80, LAMPU: pre-plant incorporated, lowest tested rate with 80% or greater inhibition, about 14 days; for Percent inhibition LAMPU: weed, PPI application. The protocol: as §1, §2, §3

Another test deals with XANST (cocklebur). The experiment in a line: Pre-plant incorporated (PPI) herbicidal activity, warm season. The format is in vivo, Xanthium strumarium. To be noted: PPI application. The protocol: as §1, §2, §3
A further test has as its system wheat (TRZAW). As to the kind of experiment: Selectivity test, PPI, cool season crop. The format is in vivo, Triticum aestivum. Particulars: PPI application. The protocol:
as §2, §3
Additional pre-emergence and PPI tests were conducted by the procedures described above, on warm and cool season weed species in the presence of crop species, to assess herbicidal selectivity. Crop species included in warm season tests were corn (Zea mays, ZEAMX), rice (Oryza sativa, ORYSA) and soybean (Glycine max, GLYMX). Crop species included in cool season tests were wheat (Triticum aestivum, TRZAW), barley (Hordeunm vulgare, HORVX) and oilseed rape (Brassica napus, BRSNS).
Tables 15 and 16 relate to pre-emergence and PPI tests respectively on warm season species. Table 17 relates to pre-emergence tests on cool season species.

The test system of test [5] is AMARE (redroot pigweed). As to the kind of experiment: Pre-emergence herbicidal activity, warm season. The format is in vivo, Amaranthus retroflexus. Particulars: GR80 = lowest tested rate (300, 100, 30, 10 g/ha) with 80% or greater inhibition; approx. 14 days after treating; 30/21° C. The method, boiled down: as §4

Take `CCN(CC)C(=O)n1cnc(S(=O)(=O)C(F)(F)C(=O)c2ccccc2)n1` [Example 6]: the “PPI activity (GR80) CHEAL” value in test [1] amounted to 100 g/ha. Also, the “PPI activity GR80, AGRRE” value in test [2] is given as 300 g/ha. The “Pre-emergence activity (GR80) SETVI” value with SETVI (green foxtail) turned out to be 300 g/ha. Also, the “PPI activity GR80, AVEFA” value with AVEFA (wild oat) worked out at 300 g/ha. The “PPI activity GR80, ECHCG” value with ECHCG (barnyardgrass) amounted to 100 g/ha. Besides, the “PPI activity (GR80) AMARE” value in the test with AMARE (redroot pigweed) [3] was 100 g/ha. In addition, in test [4], the “PPI activity GR80, LAMPU” value was found to be 300 g/ha.
Regarding `CCN(CC)C(=O)n1cnc(S(=O)(=O)C(F)(F)SCCOC)n1` [Example 13], the “Percent inhibition CHEAL” value in test [1] (10 g/ha) was found to be 30%; in test [1] (30 g/ha), 20%; in test [1] (100 g/ha), 100%; in [1] (300 g/ha), 100%; in [1] (900 g/ha), 100%. Moreover, the “PPI activity (GR80) CHEAL” value in test [1] is given as 30 g/ha. In addition, the “PPI activity GR80, AGRRE” value in test [2] is on record as “* (activity observed, at least at highest rate, but <80% inhibition)”. The “Percent inhibition AGRRE” value in test [2] (10 g/ha) is given as 0%; in test [2] (30 g/ha), 0%; in test [2] (100 g/ha) it was 20%; in [2] (300 g/ha) it was 40%; in test [2] (900 g/ha), 60%. Besides, in the test on SETVI (green foxtail), the “Pre-emergence activity (GR80) SETVI” value is 100 g/ha. For the same compound, the “PPI activity GR80, AVEFA” value in the test on AVEFA (wild oat) is “[empty]”. In addition, the “Percent inhibition AVEFA” value with AVEFA (wild oat) (10 g/ha) amounted to 0%; with AVEFA (wild oat) (30 g/ha) it was 0%; in the test on AVEFA (wild oat) (100 g/ha), 0%; with AVEFA (wild oat) (300 g/ha), 50%; in the test on AVEFA (wild oat) (900 g/ha) it was 90%. Also, the “Percent inhibition XANST” value turned out to be 0% in the test on XANST (cocklebur) (10 g/ha); 0% in the test on XANST (cocklebur) (30 g/ha); 0% in the test on XANST (cocklebur) (100 g/ha); 0% in the test on XANST (cocklebur) (300 g/ha); 30% with XANST (cocklebur) (900 g/ha). For the same compound, the “Percent inhibition ECHCG” value with ECHCG (barnyardgrass) (10 g/ha) stood at 10%; in the test with ECHCG (barnyardgrass) (30 g/ha), 80%; with ECHCG (barnyardgrass) (100 g/ha) it was 100%; in the test on ECHCG (barnyardgrass) (300 g/ha) it was 100%; with ECHCG (barnyardgrass) (900 g/ha), 100%. In addition, in the test with ECHCG (barnyardgrass), the “PPI activity GR80, ECHCG” value came out at 100 g/ha. Besides, the “Percent inhibition TRZAW” value came to 0% in the test on wheat (TRZAW) (10 g/ha); 0% with wheat (TRZAW) (30 g/ha); 20% in the test on wheat (TRZAW) (100 g/ha); 20% with wheat (TRZAW) (300 g/ha); 30% with wheat (TRZAW) (900 g/ha). Besides, the “Percent inhibition AMARE” value in the test on AMARE (redroot pigweed) [3] (10 g/ha) amounted to 0%; in the test on AMARE (redroot pigweed) [3] (30 g/ha), 90%; in the test on AMARE (redroot pigweed) [3] (100 g/ha) it was 70%; in the test with AMARE (redroot pigweed) [3] (300 g/ha), 100%; with AMARE (redroot pigweed) [3] (900 g/ha), 100%. Further, the “PPI activity (GR80) AMARE” value in the test with AMARE (redroot pigweed) [3] stood at 100 g/ha. The “PPI activity GR80, LAMPU” value in [4] amounted to 30 g/ha. Moreover, the “Percent inhibition LAMPU” value in test [4] (10 g/ha) amounted to 0%; in [4] (100 g/ha), 0%; in [4] (300 g/ha), 0%; in [4] (900 g/ha) it was 90%.
Take `CCN(CC)C(=O)n1cnc(S(=O)(=O)C(F)(F)C(F)(F)SC)n1` [Example 14]: the “Pre-emergence activity (GR80) AMARE” value in the test with AMARE (redroot pigweed) [5] worked out at 300 g/ha. For the same compound, in the test on SETVI (green foxtail), the “Pre-emergence activity (GR80) SETVI” value was 30 g/ha.
`C=C(CC(F)(F)S(=O)(=O)c1ncn(C(=O)N(CC)CC)n1)C[Si](C)(C)C` [Example 20]: in test [1], the “PPI activity (GR80) CHEAL” value came to 30 g/ha. Moreover, the “PPI activity GR80, AGRRE” value in [2] stood at 300 g/ha. Besides, the “Percent inhibition AGRRE” value in [2] (10 g/ha) is recorded as 0%; in [2] (30 g/ha), 10%; in test [2] (100 g/ha), 65%; in [2] (300 g/ha), 40%; in [2] (900 g/ha), 80%. For the same compound, the “Pre-emergence activity (GR80) SETVI” value with SETVI (green foxtail) amounted to 100 g/ha. Besides, the “PPI activity GR80, AVEFA” value with AVEFA (wild oat) worked out at 300 g/ha. Also, the “Percent inhibition AVEFA” value is 0% with AVEFA (wild oat) (10 g/ha); 0% with AVEFA (wild oat) (30 g/ha); 0% in the test on AVEFA (wild oat) (100 g/ha); 0% in the test on AVEFA (wild oat) (300 g/ha); 60% with AVEFA (wild oat) (900 g/ha). Moreover, the “Percent inhibition XANST” value was found to be 0% in the test with XANST (cocklebur) (10 g/ha), 0% in the test on XANST (cocklebur) (30 g/ha), 0% with XANST (cocklebur) (100 g/ha) and 50% with XANST (cocklebur) (900 g/ha). For the same compound, the “Percent inhibition ECHCG” value in the test on ECHCG (barnyardgrass) (10 g/ha) was determined as 0%; in the test on ECHCG (barnyardgrass) (30 g/ha) it was 0%; in the test with ECHCG (barnyardgrass) (100 g/ha) it was 20%; in the test with ECHCG (barnyardgrass) (300 g/ha) it was 70%; in the test with ECHCG (barnyardgrass) (900 g/ha), 100%. Further, the “PPI activity GR80, ECHCG” value in the test with ECHCG (barnyardgrass) came out at 300 g/ha. Also, the “Percent inhibition TRZAW” value is on record as 0% in the test with wheat (TRZAW) (10 g/ha); 0% in the test with wheat (TRZAW) (30 g/ha); 0% in the test with wheat (TRZAW) (100 g/ha); 40% in the test with wheat (TRZAW) (300 g/ha); 60% with wheat (TRZAW) (900 g/ha). Also, the “Percent inhibition AMARE” value in the test with AMARE (redroot pigweed) [3] (10 g/ha) is reported as 0%; with AMARE (redroot pigweed) [3] (30 g/ha) it was 0%; in the test with AMARE (redroot pigweed) [3] (100 g/ha), 50%; in the test with AMARE (redroot pigweed) [3] (300 g/ha), 100%; in the test with AMARE (redroot pigweed) [3] (900 g/ha), 100%. The “PPI activity (GR80) AMARE” value in the test on AMARE (redroot pigweed) [3] is 300 g/ha. Also, the “PPI activity GR80, LAMPU” value in [4] is listed as 100 g/ha. For the same compound, the “Percent inhibition LAMPU” value was 90% in test [4] (10 g/ha); 60% in test [4] (30 g/ha); 80% in [4] (100 g/ha); 100% in [4] (300 g/ha); 95% in [4] (900 g/ha).
